Common to all, as to type: in vivo, CD-1 mice
A short description of data set [1]: Body weights of SG-fed animals. Particulars: SG-fed vs control, over the study. The method, then:
Five-month old male CD-1 mice (30.1-35.7 g, 7.5 cm - 8.8 cm) were purchased from Charles River (Wilmington, MA). Adult mice were chosen to mimic the mean age of onset of ALS-PDC (Kurland, 1988; Kurland et al., 1994). Thirty mice for the SG study were randomly divided into 2 groups (14 control and 16 experimental animals). All animals were housed singly in a virus-free barrier facility in a room maintained at 22°C under a 12 hour light/dark cycle. The mice were provided ad libitum access to food and water.
(§1) The synthetic SG was mixed with finely ground Purina Chow mouse pellets (Mouse Diet™, Purina) to create the experimental pellets with a SG content of 1000 µg per pellet. Dry materials were blended with a sterile silicon spatula. For every 5 g of standard feed, 2.5 mL of doubly-distilled water (dd)H2O was added and the dough was kneaded and round up into pellets. A single sterol glucoside containing pellet was placed in the feeding tray each morning before the addition of regular mouse chow (ad libitum). All experimental pellets were entirely consumed by the mice each day. Control mice were fed standard mouse chow pellets of identical weight with no additives. SG feeding was conducted daily for 15 weeks and mice were behaviorally monitored until sacrifice at 35 weeks (time point 1) or 52 weeks (time point 2).

The test system of another data set is Heat shock protein-70. In words: Heat shock protein-70 immunofluorescence. The note with it: for Anti-Hsp-70 (VHLsc) / Anti-Hsp-70 (VHTsc): SG-fed vs control; for Anti-Hsp-70 (VHLsc): ventral horn lumbar spinal cord; for Anti-Hsp-70 (VHTsc): ventral horn thoracic spinal cord. The method, then:
as §1
Tissue-mounted slides were processed for fluorescence microscopy as follows: Sections were rinsed in coplin jars for 45 minutes at room temperature (RT) in three changes of PBS. Sections were then incubated at RT for 30 minutes in a blocking permeabilization solution made of 5% normal goat serum (NGS), 5% normal rabbit serum (NRS) or 5% BlokHen II (Aves Labs, Inc., Tigard, OR), 0.05% Triton X-100 and PBS. Subsequently, the blocking solution was tipped off and the slides were rinsed in PBS for 2 minutes. Sections were then incubated overnight in a humidified chamber at 4°C with a PBS buffered solution that contained 1% NGS or 1% NRS, 1% bovine serum albumin (BSA) and one of the following primary antibodies: (a) rabbit anti-human/mouse ATF-3 (H-90) IgG (polyclonal, 1:500; Santa Cruz Biotechnology, Inc., Santa Cruz, CA), (b) anti-activated caspase-3 IgG (monoclonal, 1:250; Chemicon International, Temecula, CA) (see FIGURE 9), (c) goat antihuman/ mouse choline acetyl transferase (ChAT) IgG (polyclonal, 1:100; Chemicon International, Temecula, CA) (see FIGURE 6), (d) rabbit anti-mouse glial fibrillary acidic protein IgG (polyclonal, 1:250; GeneTex Inc., San Antonio, TX) (see FIGURE 7), (e) rabbit antihuman/ mouse ionized calcium binding adaptor molecule 1 (IBA-1) IgG (polyclonal, 1:500; Wako Pure Chemical Industries, Ltd, Richmond, VA), (f) mouse anti-human/mouse clone AT8 PHF-1 Tau (monoclonal, 1:200; Pierce Biotechnology Inc., Rockford, IL), (g) rabbit anti-human/mouse TAR DNA-binding protein 43 (TDP43) (1:100; ProteinTech Group Inc., Chicago, IL) (See FIGURE 14), (h) chicken anti-human/mouse β-tubulin 3 (TuJ1 antigen) (polyclonal, 1:100, Aves Labs, Inc., Tigard, OR), (i) rabbit anti-mouse tyrosine hydroxylase (polyclonal, 1:500, Chemicon International, Temecula, CA or polyclonal 1:1000, Affinity BioReagents, Golden, CO) (FIGURE 10), (j) rabbit anti human/mouse anti-pJunser73 IgG (polyclonal, 1:200; Chemicon International, Temecula, CA), (k) rabbit anti human/mouse anti-HSP-70 IgG (polyclonal, 1:200; Chemicon International, Temecula, CA), or (1) rabbit anti human/mouse anti-HSP-25 IgG (polyclonal, 1:100; Chemicon International, Temecula, CA). In each experiment, additional slides were incubated with the primary antibody and the secondary antibody omitted or with secondary antibody and primary antibody omitted to test for nonspecific staining. Where appropriate, positive control slides (Alzheimer's disease patient entorhinal cortex, obtained from Drs. Claudia Schwab and Patrick McGeer of the Kinsmen Laboratory, University of British Columbia, Vancouver, BC, Canada) were also processed as above for comparison. Following overnight incubation with the primary antibody, slides were rinsed for 45 minutes at RT in three changes of PBS. […]

A further data set relates to Active Caspase-3. In words: Active caspase-3 labelling (apoptotic activity). The procedure: as §1
Tissue-mounted slides were processed for fluorescence microscopy as follows: Sections were rinsed in coplin jars for 45 minutes at room temperature (RT) in three changes of PBS. Sections were then incubated at RT for 30 minutes in a blocking permeabilization solution made of 5% normal goat serum (NGS), 5% normal rabbit serum (NRS) or 5% BlokHen II (Aves Labs, Inc., Tigard, OR), 0.05% Triton X-100 and PBS. Subsequently, the blocking solution was tipped off and the slides were rinsed in PBS for 2 minutes. […]

The next data set has as its system Cytochrome c oxidase. In words: Cytochrome c oxidase histochemistry. Particulars: for Cytochrome c oxidase activity: SG-fed vs control. The procedure: as §1
Tissue-mounted slides were processed for […] in a manner adapted from Seligman et al. (1968) and Wong-Riley (1979). Sections were rinsed in coplin jars for 15 minutes at RT in three changes of PBS and subsequently incubated with a media comprised of 50 mg of 3,3'-diaminobenzidine tetrahydrochloride (DAB) (DAB substrate system, Vector Laboratories, Burlingame, CA, USA), 90 mL 0.1M phosphate buffer, 20 mg cytochrome c (type III, Sigma-Aldrich Co., Oakville, ON, Canada), and 4 g of sucrose in a dish submerged in a water bath maintained at 37°C in the dark for 2 hours. The sections were monitored closely for the brown reaction product to appear within the tissue. Once a medium-brown color was achieved, slides were removed from the incubation media and rinsed for 15 minutes in three changes of PBS to stop the reaction. This was followed with a 2 minutes rinse in distilled water to remove residue from the slides. The slides were dried under a fume hood and cover-slipped with Entellen (Merck, Darmstadt, Germany).
The numbers of immunoreactive somata or inclusions were counted across the ventral horn of the spinal cord, across brain hemispheres, or per dorsal or ventral root with the 40x objective lens in a 600 µm / 600 µm area within region perimeters defined by a mouse brain atlas (2001). For each animal, eight cross-sections per spinal cord or brain region were studied. […] For quantification of the level of mitochondrial activity (cytochrome c oxidase labelling) in the lumbar spinal cord or tyrosine hydroxylase immunoreactivity in the substantia nigra pars compacta and striatal sections, images captured using the Motic B5 Professional Series 3.0 microscope (Motic Instruments Inc., Richmond, ON) and analyzed using Motic B5 Professional, Motic Images Advanced 3.0 (Motic Instruments Inc., Richmond, ON) were scanned into a TIFF format file and analysed using the NIH Image J 1.37 software to measure density levels of antibody labelling. […]

The mark [2] stands for this setting: SG-fed group over time, 35 to 52 wk.

Entries after “also recorded” stand apart in the source; their conditions may differ. Marks after values point to notes of the source that are not given here.

As to `CCC(C=CC(C)C1CCC2C3CC=C4CC(OC5OC(CO)C(O)C(O)C5O)CCC4(C)C3CCC12C)C(C)C` (centres unmarked) [SG], the Body weights entry in data set [1] is reported as “not significantly different; also recorded: normal weight gain”. In the data set with Heat shock protein-70 (setting [2]), the “Anti-Hsp-70 Lsc” value is recorded as “Anti-Hsp-70 Lsc (SG-fed group over time) (ns, p=0.1223)”. Moreover, in the data set with Heat shock protein-70 (setting [2]), the “Anti-Hsp-70 Tsc” value was “Anti-Hsp-70 Tsc (SG-fed group over time) (ns, p=0.8319)”. Further, the “Anti-Hsp-70 (VHLsc)” value was “Anti-Hsp-70: +1036%***” in the data set with Heat shock protein-70 (time-point 1, 35 wk) and “Anti-Hsp-70: +425%* (VHLsc)” with Heat shock protein-70 (time-point 2, 52 wk). The “Anti-Hsp-70 (VHTsc)” value in the data set with Heat shock protein-70 (time-point 1, 35 wk) is on record as “Anti-Hsp-70: (ns, p=0.9697)”; in the data set with Heat shock protein-70 (time-point 2, 52 wk), “Anti-Hsp-70: (ns, p=0.2793)”. The Apoptotic cells result with Active Caspase-3 (setting [2]) is on record as “Apoptotic cells (SG-fed group over time) (ns)”. Moreover, in the data set with Active Caspase-3 (SG-fed vs control, 52 weeks (figure legend)), the “number of apoptotic cells” value is reported as “did not reach significance”. Besides, in the data set on Active Caspase-3 (SG-fed vs control, time-point 2, 52 wk), the “Anti-active caspase 3” value is reported as “(ns)”. Besides, in the data set with Cytochrome c oxidase (setting [2]), the “Cytochrome c oxidase Activity, Optical density” value is given as “Optical density (SG-fed group over time): -36%**”. The “Cytochrome c oxidase activity” value is “no significant differences” with Cytochrome c oxidase (35 or 52 weeks); “(ns)” with Cytochrome c oxidase (time-point 1, 35 wk); “(ns)” in the data set with Cytochrome c oxidase (time-point 2, 52 wk).
